Laboratory results from patent US11389537B2, “Drug delivery system for sustained delivery of bioactive agents” (UPM-Kymmene Corporation, priority 2011, dated 2022).
Converted amounts (≈) assume the structure as drawn. Structures can show the parent of a compound that is named as a salt. Where two headings read alike, the source gives them in different places.

Assays:
[1] = Stability in water solution of tested drugs; format: physicochemical
Excerpt: (§1) NFC has strong affinity to water, which makes drying it difficult. The residence time in the spray-drying chamber is short and therefore high temperature needs to be used in drying. If lower temperature and/or higher feeding rates were to be used, the wet material would adhere to the chamber. The application of high temperature when spray drying the aqueous suspension of NFC containing an API, increases the risk of degradation of the API during the drying process. High temperature is also a limitation for the choice of the API if its melting point is low (Table 11, showing the values of melting point (Tm), water solubility and stability in water solution of tested drugs). Generally, particles reach a maximum temperature during spraying, which is 15-20° C. below the outlet temperature of a co-current dryer.

[2] = cited from earlier work
[3] = Contact angle between matrix surface and water drop; details: water drop on matrix surface or pure drug
[4] = Solubility in water of tested drugs; format: physicochemical; details: value obtained from testing
Excerpt: as §1, with “dryer. During the particle production outlet temperatures were in the range of 120-127° C., which was sufficient for successful drying.” for “dryer.”

COc1ccc2c(c1)c(CC(=O)O)c(C)n2C(=O)c1ccc(Cl)cc1 [Indomethacin, indomethacin]
Stability in water solution (21° C.) ([1]; pH 7.4, obtained from testing): *pH 7.4 up to 4 days | Solubility in water [2]: <0.001 mg/mL | Solubility in water (words) [2]: ↑ with ↑ pH | Solubility in water ([2]; line below '↑ with ↑ pH'): <1 mg/mL | Contact angle [3]: 76.7

CC(C)Cc1ccc(C(C)C(=O)O)cc1 (stereo not shown) [Ibuprofen, ibuprofen]
Solubility (50 mM NH4OH) ([2]; 50 mM NH4OH): 6 mg/mL (≈ 29.1 mM)

COCCc1ccc(OCC(O)CNC(C)C)cc1 (stereo not shown) [Metoprolol tartrate, metoprolol tartrate]
Stability in water solution (21° C.) ([1]; obtained from testing): *up to 60 days | Solubility in water (words) [2]: freely

CC(C)(C)NCC(O)COc1cccc2c1CC(O)C(O)C2 (stereo not shown) [Nadolol, nadolol]
solubility [4]: 6.77 mg/mL (≈ 21.9 mM) | Stability in water solution (21° C.) ([1]; obtained from testing): *up to 30 days
